Measurements as given in US20100099561A1, “HETEROBICYCLIC ALKYLTHIO-BRIDGED ISOXAZOLINES” (E.I. DU PONT DE NEMOURS AND COMPANY, priority 2008, published 2010).

Key:
Type in all cases: in vivo
[1] = system: barnyardgrass (Echinochloa crus-galli); experiment: Test A preemergence, barnyardgrass; details: 0 to 100 scale (0 no effect, 100 complete control)
Summary of the method: (§1)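 Seeds planted in loam–sand blend; compounds in non-phytotoxic solvent with surfactant applied as directed preemergence soil spray, or postemergence to plants 2–10 cm tall at one- to two-leaf stage. After ~10 days in greenhouse, injury rated visually versus untreated controls on 0–100 scale (100 = complete control).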

[2] = system: large crabgrass (Digitaria sanguinalis); experiment: Test A preemergence, large crabgrass; details: 0 to 100 scale (0 no effect, 100 complete control)
Summary of the method: as §1

[3] = system: giant foxtail (Setaria faberi); experiment: Test A preemergence, giant foxtail; details: 0 to 100 scale (0 no effect, 100 complete control)
Summary of the method: as §1

[4] = system: morningglory (Ipomoea spp.); experiment: Test A preemergence, morningglory; details: 0 to 100 scale (0 no effect, 100 complete control)
Summary of the method: as §1

[5] = system: pigweed (Amaranthus retroflexus); experiment: Test A preemergence, pigweed; details: 0 to 100 scale (0 no effect, 100 complete control)
Summary of the method: as §1

[6] = system: velvetleaf (Abutilon theophrasti); experiment: Test A preemergence, velvetleaf; details: 0 to 100 scale (0 no effect, 100 complete control)
Summary of the method: as §1

[7] = system: wheat (Triticum aestivum); experiment: Test A preemergence, wheat; details: 0 to 100 scale (0 no effect, 100 complete control)
Summary of the method: as §1

[8] = system: corn (Zea mays); experiment: Test A preemergence, corn; details: 0 to 100 scale (0 no effect, 100 complete control)
Summary of the method: as §1

[9] = system: barnyardgrass (Echinochloa crus-galli); experiment: Test A postemergence, barnyardgrass; details: 0 to 100 scale (0 no effect, 100 complete control)
Summary of the method: as §1

[10] = system: large crabgrass (Digitaria sanguinalis); experiment: Test A postemergence, large crabgrass; details: 0 to 100 scale (0 no effect, 100 complete control)
Summary of the method: as §1

[11] = system: giant foxtail (Setaria faberi); experiment: Test A postemergence, giant foxtail; details: 0 to 100 scale (0 no effect, 100 complete control)
Summary of the method: as §1

[12] = system: morningglory (Ipomoea spp.); experiment: Test A postemergence, morningglory; details: 0 to 100 scale (0 no effect, 100 complete control)
Summary of the method: as §1

[13] = system: pigweed (Amaranthus retroflexus); experiment: Test A postemergence, pigweed; details: 0 to 100 scale (0 no effect, 100 complete control)
Summary of the method: as §1

[14] = system: velvetleaf (Abutilon theophrasti); experiment: Test A postemergence, velvetleaf; details: 0 to 100 scale (0 no effect, 100 complete control)
Summary of the method: as §1

[15] = system: wheat (Triticum aestivum); experiment: Test A postemergence, wheat; details: 0 to 100 scale (0 no effect, 100 complete control)
Summary of the method: as §1

[16] = system: corn (Zea mays); experiment: Test A postemergence, corn; details: 0 to 100 scale (0 no effect, 100 complete control)
Summary of the method: as §1

[17] = system: rice (Oryza sativa); experiment: Test B flooded paddy test, rice; details: Flood, scale 0 to 100
Summary of the method: (§2)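 Rice, umbrella sedge, ducksalad and barnyardgrass at 2-leaf stage; pots flooded to 3 cm, compounds applied into paddy water, depth held throughout. Greenhouse 13 to 15 days, then visual rating vs untreated controls on 0–100 scale (0 no effect, 100 complete control); dash means no test result.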

[18] = system: umbrella sedge (Cyperus difformis); experiment: Test B flooded paddy test, umbrella sedge; details: Flood, scale 0 to 100
Summary of the method: as §2

[19] = system: ducksalad (Heteranthera limosa); experiment: Test B flooded paddy test, ducksalad; details: Flood, scale 0 to 100
Summary of the method: as §2

[20] = system: barnyardgrass (Echinochloa crus-galli); experiment: Test B flooded paddy test, barnyardgrass; details: Flood
Summary of the method: as §2

[21] = 250 g ai/ha, scale 0 to 100 (0 no effect, 100 complete control)

SMILES: Cc1con2c(=O)c(CS(=O)(=O)C3=NOC(C)(C)C3)c(C(F)(F)F)nc12 [Compound 56]
- Plant response rating, Barnyardgrass ([1]; 125 g ai/ha): 0
- Plant response rating, Barnyardgrass ([1]; 500 g ai/ha): 90
- Plant response rating, Crabgrass, Large ([2]; 125 g ai/ha): 0
- Plant response rating, Crabgrass, Large ([2]; 500 g ai/ha): 90
- Plant response rating, Foxtail, Giant ([3]; 125 g ai/ha): 20
- Plant response rating, Foxtail, Giant ([3]; 500 g ai/ha): 90
- Plant response rating, Morningglory ([4]; 125 g ai/ha): 0
- Plant response rating, Morningglory ([4]; 500 g ai/ha): 0
- Plant response rating, Pigweed ([5]; 125 g ai/ha): 0
- Plant response rating, Pigweed ([5]; 500 g ai/ha): 0
- Plant response rating, Velvetleaf ([6]; 125 g ai/ha): 0
- Plant response rating, Velvetleaf ([6]; 500 g ai/ha): 0
- Plant response rating, Wheat ([7]; 125 g ai/ha): 0
- Plant response rating, Wheat ([7]; 500 g ai/ha): 0
- Plant response rating, Corn ([8]; 125 g ai/ha): 0
- Plant response rating, Corn ([8]; 500 g ai/ha): 0
- Plant response rating, Barnyardgrass ([9]; 125 g ai/ha): 70
- Plant response rating, Barnyardgrass ([9]; 500 g ai/ha): 80
- Plant response rating, Crabgrass, Large ([10]; 125 g ai/ha): 60
- Plant response rating, Crabgrass, Large ([10]; 500 g ai/ha): 80
- Plant response rating, Foxtail, Giant ([11]; 125 g ai/ha): 40
- Plant response rating, Foxtail, Giant ([11]; 500 g ai/ha): 80
- Plant response rating, Morningglory ([12]; 125 g ai/ha): 10
- Plant response rating, Morningglory ([12]; 500 g ai/ha): 30
- Plant response rating, Pigweed ([13]; 125 g ai/ha): 0
- Plant response rating, Pigweed ([13]; 500 g ai/ha): 10
- Plant response rating, Velvetleaf ([14]; 125 g ai/ha): 0
- Plant response rating, Velvetleaf ([14]; 500 g ai/ha): 0
- Plant response rating, Wheat ([15]; 125 g ai/ha): 0
- Plant response rating, Wheat ([15]; 500 g ai/ha): 0
- Plant response rating, Corn ([16]; 125 g ai/ha): 0
- Plant response rating, Corn ([16]; 500 g ai/ha): 0
- Plant response rating, Rice ([17]; 31 g ai/ha): 0
- Plant response rating, Rice ([17]; 62 g ai/ha): 0
- Plant response rating, Rice ([17]; 125 g ai/ha): 0
- Plant response rating, Rice ([17]; 250 g ai/ha): 0
- Plant response rating, Sedge, Umbrella ([18]; 31 g ai/ha): 0
- Plant response rating, Sedge, Umbrella ([18]; 62 g ai/ha): 0
- Plant response rating, Sedge, Umbrella ([18]; 125 g ai/ha): 20
- Plant response rating, Sedge, Umbrella ([18]; 250 g ai/ha): 30
- Plant response rating, Ducksalad ([19]; 31 g ai/ha): 0
- Plant response rating, Ducksalad ([19]; 62 g ai/ha): 0
- Plant response rating, Ducksalad ([19]; 125 g ai/ha): 0
- Plant response rating, Ducksalad ([19]; 250 g ai/ha): 0
- Plant response rating, Barnyardgrass ([20]; 31 g ai/ha, scale 0 to 100): 0
- Plant response rating, Barnyardgrass ([20]; 62 g ai/ha, scale 0 to 100): 0
- Plant response rating, Barnyardgrass ([20]; 125 g ai/ha, scale 0 to 100): 0
- Plant response rating, Barnyardgrass [20, 21]: 0

SMILES: CC1(C)CC(S(=O)(=O)Cc2c(C(F)(F)Cl)nc3n(c2=O)CCCC3)=NO1 [Compound 30]
- Plant response rating, Barnyardgrass ([1]; 125 g ai/ha): 50
- Plant response rating, Barnyardgrass ([1]; 500 g ai/ha): 100
- Plant response rating, Crabgrass, Large ([2]; 125 g ai/ha): 90
- Plant response rating, Crabgrass, Large ([2]; 500 g ai/ha): 100
- Plant response rating, Foxtail, Giant ([3]; 125 g ai/ha): 90
- Plant response rating, Foxtail, Giant ([3]; 500 g ai/ha): 100
- Plant response rating, Morningglory ([4]; 125 g ai/ha): 30
- Plant response rating, Morningglory ([4]; 500 g ai/ha): 40
- Plant response rating, Pigweed ([5]; 125 g ai/ha): 70
- Plant response rating, Pigweed ([5]; 500 g ai/ha): 100
- Plant response rating, Velvetleaf ([6]; 125 g ai/ha): 40
- Plant response rating, Velvetleaf ([6]; 500 g ai/ha): 60
- Plant response rating, Wheat ([7]; 125 g ai/ha): 0
- Plant response rating, Wheat ([7]; 500 g ai/ha): 50
- Plant response rating, Corn ([8]; 125 g ai/ha): 0
- Plant response rating, Corn ([8]; 500 g ai/ha): 0
- Plant response rating, Barnyardgrass ([9]; 125 g ai/ha): 60
- Plant response rating, Barnyardgrass ([9]; 500 g ai/ha): 80
- Plant response rating, Crabgrass, Large ([10]; 125 g ai/ha): 60
- Plant response rating, Crabgrass, Large ([10]; 500 g ai/ha): 80
- Plant response rating, Foxtail, Giant ([11]; 125 g ai/ha): 60
- Plant response rating, Foxtail, Giant ([11]; 500 g ai/ha): 80
- Plant response rating, Morningglory ([12]; 125 g ai/ha): 10
- Plant response rating, Morningglory ([12]; 500 g ai/ha): 50
- Plant response rating, Pigweed ([13]; 125 g ai/ha): 50
- Plant response rating, Pigweed ([13]; 500 g ai/ha): 60
- Plant response rating, Velvetleaf ([14]; 125 g ai/ha): 20
- Plant response rating, Velvetleaf ([14]; 500 g ai/ha): 50
- Plant response rating, Wheat ([15]; 125 g ai/ha): 0
- Plant response rating, Wheat ([15]; 500 g ai/ha): 50
- Plant response rating, Corn ([16]; 125 g ai/ha): 0
- Plant response rating, Corn ([16]; 500 g ai/ha): 0
- Plant response rating, Rice ([17]; 31 g ai/ha): 0
- Plant response rating, Rice ([17]; 125 g ai/ha): 0
- Plant response rating, Sedge, Umbrella ([18]; 31 g ai/ha): 0
- Plant response rating, Sedge, Umbrella ([18]; 125 g ai/ha): 0
- Plant response rating, Ducksalad ([19]; 31 g ai/ha): 0
- Plant response rating, Ducksalad ([19]; 125 g ai/ha): 0
- Plant response rating, Barnyardgrass ([20]; 31 g ai/ha, scale 0 to 100): 0
- Plant response rating, Barnyardgrass ([20]; 125 g ai/ha, scale 0 to 100): 0

SMILES: Cc1con2c(=O)c(C[S+]([O-])C3=NOC(C)(C)C3)c(C(F)(F)F)nc12 (centres unmarked) [Compound 47]
- Plant response rating, Barnyardgrass ([1]; 125 g ai/ha): 0
- Plant response rating, Barnyardgrass ([1]; 500 g ai/ha): 70
- Plant response rating, Crabgrass, Large ([2]; 125 g ai/ha): 0
- Plant response rating, Crabgrass, Large ([2]; 500 g ai/ha): 20
- Plant response rating, Foxtail, Giant ([3]; 125 g ai/ha): 0
- Plant response rating, Foxtail, Giant ([3]; 500 g ai/ha): 30
- Plant response rating, Morningglory ([4]; 125 g ai/ha): 0
- Plant response rating, Morningglory ([4]; 500 g ai/ha): 0
- Plant response rating, Pigweed ([5]; 125 g ai/ha): 0
- Plant response rating, Pigweed ([5]; 500 g ai/ha): 0
- Plant response rating, Velvetleaf ([6]; 125 g ai/ha): 0
- Plant response rating, Velvetleaf ([6]; 500 g ai/ha): 0
- Plant response rating, Wheat ([7]; 125 g ai/ha): 0
- Plant response rating, Wheat ([7]; 500 g ai/ha): 0
- Plant response rating, Corn ([8]; 125 g ai/ha): 0
- Plant response rating, Corn ([8]; 500 g ai/ha): 0
- Plant response rating, Barnyardgrass ([9]; 125 g ai/ha): 0
- Plant response rating, Barnyardgrass ([9]; 500 g ai/ha): 50
- Plant response rating, Crabgrass, Large ([10]; 125 g ai/ha): 0
- Plant response rating, Crabgrass, Large ([10]; 500 g ai/ha): 60
- Plant response rating, Foxtail, Giant ([11]; 125 g ai/ha): 0
- Plant response rating, Foxtail, Giant ([11]; 500 g ai/ha): 60
- Plant response rating, Morningglory ([12]; 125 g ai/ha): 0
- Plant response rating, Morningglory ([12]; 500 g ai/ha): 20
- Plant response rating, Pigweed ([13]; 125 g ai/ha): 0
- Plant response rating, Pigweed ([13]; 500 g ai/ha): 0
- Plant response rating, Velvetleaf ([14]; 125 g ai/ha): 0
- Plant response rating, Velvetleaf ([14]; 500 g ai/ha): 0
- Plant response rating, Wheat ([15]; 125 g ai/ha): 0
- Plant response rating, Wheat ([15]; 500 g ai/ha): 0
- Plant response rating, Corn ([16]; 125 g ai/ha): 0
- Plant response rating, Corn ([16]; 500 g ai/ha): 20
- Plant response rating, Rice ([17]; 62 g ai/ha): 0
- Plant response rating, Rice ([17]; 250 g ai/ha): 0
- Plant response rating, Sedge, Umbrella ([18]; 62 g ai/ha): 0
- Plant response rating, Sedge, Umbrella ([18]; 250 g ai/ha): 0
- Plant response rating, Ducksalad ([19]; 62 g ai/ha): 0
- Plant response rating, Ducksalad ([19]; 250 g ai/ha): 0
- Plant response rating, Barnyardgrass ([20]; 62 g ai/ha, scale 0 to 100): 0
- Plant response rating, Barnyardgrass [20, 21]: 0
